Tested on: BHK-SR19-T7 cells
Assay: Blasticidin concentration that kills BHK-SR19-T7 cells
Format: cell-based, hamster
Settings: in medium
Procedure: To launch the replicon, MP295 and the four RSV support plasmids necessary for virus replication and gene expression, N, P, L, and M2-1 were transfected into two 35 mm wells of BHK-SR19-T7 cells (FIG. 4). On day 2, green cells were noted and all of the cells from each 35 mm dish were passaged to 100 mm dishes. On the following day (day 3) the medium was replaced with fresh medium containing 1 ug/ml blasticidin, a concentration that we had determined would kill most BHK-SR19-T7 cells. On day 4, approximately 200 single green cells and 15 pairs of the green cells were noted. On day 6, 20 pairs of green cells were noted. Many of the cells lacking the replicon had died by that time, but a few resistant colonies were growing. The cells were passaged into 150 mm tissue culture plates, in the presence of 4 or 8 ug/ml blasticidin in an attempt to eliminate resistant BHK cell clones. The following day, day 9, 40% of the 175 cell groups counted were pairs, the remainder being singles. By day 14, 3 colonies of >20 cells had developed, while many of the individual green cells had remained single or died. By day 19, many “mixed” colonies containing both replicon-containing and parental cells were noted, as well as more colonies with only green cells.

CN(CC[C@H](N)CC(=O)N[C@H]1C=C[C@H](n2ccc(N)nc2=O)O[C@@H]1C(=O)O)C(=N)N [blasticidin]
concentration that would kill most BHK-SR19-T7 cells: 1000 ng/mL

Reference: patent publication US7585667B2, “Negative strand RNA virus replicon” (The United States of America as represented by The …, priority 2003, dated 2009)
